Results on two molecules are retold here after patent US20240360409A1, “METHOD FOR PRODUCING HIGHLY PROLIFERATIVE CELL, AND HIGHLY PROLIFERATIVE CELL AND USE THEREOF” (TOKYO MEDICAL UNIVERSITY, priority 2021, published 2024).

For the test, the system named is Normal Human Astrocytes (NHA). Nature of the test: Long-term culturing of human astrocytes using medium containing inhibitor (Example 1). The format is cell-based. Conditions: for Number of days up to day of final passage / Passage number: NHA, 41 days of culturing, Y 10 μM, A 0.5 μM. As to the method:
Long-term culturing of human astrocytes was performed using the following materials, reagents, and products for culturing.
• Normal Human Astrocytes (NHA) (CC-2565, Lonza Group AG)
• Culture medium: AGM Astrocyte Growth Medium Bullet Kit (CC-3186, Lonza Group AG) (composition of AGM: basal medium, FBS (3% (v/v)), L-glutamine, ascorbic acid, hEGF, insulin, and antibiotic) • Inhibitor Y: CultureSure (registered trademark) Y-27632 (034-24024, FUJIFILM Wako Pure Chemical Corporation), final concentration: 10 μM • Inhibitor A: CultureSure (registered trademark) A-83-01(035-24113, FUJIFILM Wako Pure Chemical Corporation), final concentration: 0.5 μM • Cell detachment agent: Accutase (AT104, Innovative Cell Technologies, Inc.) • Cell buffer: phosphate buffered saline (Dulbecco's formula; without calcium and magnesium) (BNDSBN200, KAC Co., Ltd.) • Medium for cell freezing: CELLBANKER 1 (CB011 TaKaRa Bio Inc. (NIPPON ZENYAKU KOGYO CO., LTD.)) • Cell culturing dish 60 mm (150462, Thermo Fisher Scientific Inc.) • Cell culturing dish 100 mm (150466, Thermo Fisher Scientific Inc.) • Cell culturing dish 150 mm (150468, Thermo Fisher Scientific Inc.) • Stericup Quick Release-GP Sterile Vacuum Filtration System (S2GPU02RE, Merck Millipore) • Inhibitor-free medium for culture supernatant collection: Dulbecco's Modied Eagle Medium (DMEM) (C11995500CP, Gibco (registered trademark), Thermo Fisher Scientific Inc.) and N-2 Supplement (x100) (17502-048, Gibco (registered trademark), Thermo Fisher Scientific Inc.)
The long-term culturing was performed in accordance with the following procedure. A frozen tube of the human astrocyte cells (NHA) was thawed in a water bath at 37° C. Next, the lysed cells were transferred to the culture medium so that the total volume was 10 mL and subjected to centrifugation at 180×g for 3 minutes at room temperature, and then the medium was removed. The cells were divided into 4 groups; a group to which only the inhibitor Y was added (hereinafter, the NHA-Y group), a group to which only the inhibitor A was added (hereinafter, the NHA-A group), a group to which the inhibitor Y and the inhibitor A were added (hereinafter, the NHA-YA group), and a group to Ih no inhibitor was added (normal group).
The medium was replaced every other day or every two days with fresh culture medium containing each inhibitor (or not containing any inhibitor). When the confluency reached 80 to 90%, the cells were detached using the cell detachment agent, and the cells were suspended in the culture medium containing each inhibitor (or not containing any inhibitor) and passaged into a 6-well plate at a seeding density of 4.2×10^3 cells/cm^2. While continuing the passaging, the culturing was performed for 41 days in the culture medium containing each inhibitor (or not containing any inhibitor).
The cell passage number and the number of days up to the day of final passage in each group are indicated in the following Table 1, and the correlations between the number of culturing days and the total number of cells are indicated in Table 2.

As to `Cc1cccc(-c2nn(C(=S)Nc3ccccc3)cc2-c2ccnc3ccccc23)n1` [A, 3-(6-methylpyridin-2-yl)-4-(4-quinolyl)-1-phenylthiocarbamoyl-1H-pyrazole], the “Number of days up to day of final passage” value is given as 30 days and the Passage number is 4 times. Besides, the Number of cells (culturing day 0) is on record as 8.00 ×10^4 cells. For the same molecule, the Number of cells (culturing day 5) is on record as 55.75 ×10^4 cells. For the same molecule, the Number of cells (culturing day 15) is 264.81 ×10^4 cells. Further, the Number of cells (culturing day 23) is 595.83 ×10^4 cells. The Number of cells (culturing day 30) is 1005.46 ×10^4 cells.
For `C[C@@H](N)[C@H]1CC[C@H](C(=O)Nc2ccncc2)CC1` [Y], the “Number of days up to day of final passage” value worked out at 29 days and the Passage number is given as 5 times. Further, the Number of cells (culturing day 0) is listed as 8.00 ×10^4 cells. Also, the Number of cells (culturing day 5) is given as 87.25 ×10^4 cells. Further, the Number of cells (culturing day 8) was 245.39 ×10^4 cells. In addition, the Number of cells (culturing day 13) was 391.09 ×10^4 cells. Besides, the Number of cells (culturing day 19) is reported as 733.30 ×10^4 cells. Where the note is “culturing day 29”, the Number of cells is listed as 756.21 ×10^4 cells.
